Reference: a melting point compilation (Tetko et al.; mined from patent text by program, amines drawn as free bases though some values may be those of a salt)

| SMILES | melting point [°C] |
| --- | --- |
| CN(C)CC(=O)N1c2ccccc2N(C)S(=O)(=O)c2ccc(C(F)(F)F)cc21 | 156 to 157 |
| CC(C)Cc1cc2cc(O)ccc2c(Oc2ccc(/C=C/C(=O)O)cc2)c1-c1ccccc1 | 126 to 128 |
| Ic1ccc(Cc2ccc(I)cc2)cc1 | 160 to 164 |
| CNC(=O)Nc1ccc(C(=O)O)cc1 | > 300 |
| CCOc1nc2ccccc2nc1N(CC)C(=O)N1CCN(c2cc(Cl)cc(Cl)c2)CC1 | 115 to 117 |
| O=c1[nH]c2ccccc2n1CCN1CCC(Nc2nc3cccnc3n2CCOCCO)CC1 | 177 |
| COc1ccc(C(=O)Nc2cc(NC(=O)c3cccc(NS(C)(=O)=O)c3)ccc2C)cc1OC | > 300 |
| ClCSc1ccccc1Br | 28 to 30 |
| COc1ccc(S(N)(=O)=O)cc1C(N)=O | 178 |
| CON=C(Nc1nc(OC)nc(OC)n1)NS(=O)(=O)c1ccccc1-c1ccccc1 | 189 to 190 |
| COc1c(NC(=O)c2cc3cccc(NC(=O)c4ccc(N)nc4)c3s2)cc(C(C)(C)C)cc1NS(C)(=O)=O | 234 to 235 |
| C=CC/C=C(\C(=O)O)c1cc(OC)c(O)c2c(Cc3ccccc3)cccc12 | 156 to 158 |
| Cc1nc2c(N)nc3cc(OCCNC(=O)OC(C)(C)C)ccc3c2n1CC(C)C | 227 to 228 |
| COc1ccc(C(=O)Cc2ccnc(NC(=O)c3ccccc3)c2)cc1 | 136 to 139 |
| CCS(=O)(=O)N[C@H]1CC[C@H](CCN2CCN(c3nccc4c3OCC4)CC2)CC1 | 190 |
| CCCc1nc(SC)nc(O)c1Cc1ccc(-c2ccccc2C#N)cc1 | 218 |
| CN1C(=O)COc2ccc(C3=NNC(=O)CC3)cc21 | 247 to 248 |
| O=C(c1ccc(F)cc1)C1CCN(CCN(C(=O)c2ccc([N+](=O)[O-])cc2)c2ccccc2)CC1 | 178 to 180 |
| C#CCOc1cccc(-n2c(-c3ccccc3)cc(=O)c(C)c2-c2ccccc2)c1 | 166 to 169 |
| O=C1COc2cc3[nH]c(C(=O)N4CCC(Cc5ccc(F)cc5)CC4)cc3cc2N1 | 219 to 226 |
| COC(=O)/C(=N/NC(N)=O)c1ccc(OCCOc2ccc3ccccc3c2)cc1 | 132 to 134 |
| CP(C)(=O)C(O)C(=O)O (configuration not stated) | 206 to 208 |
| O=C(O)c1ccc(CC2COc3ccc(OCc4ccc5ccccc5n4)cc3C2O)cc1 (configuration not stated) | 199 to 201 |
| O=C(O)CCc1cc(OCc2cc(COc3ccc(Cl)cc3Cl)cc(OCc3ccccc3)c2)nn1-c1ccccc1 | 126 to 130 |
| O=S1(=O)c2cccc3cccc(c23)N1CCCN1CCN(c2ccccc2)CC1 | 126 |

| SMILES | melting point [°C] |
| --- | --- |
| Cc1sc2ccc(Cl)cc2c1C1=NCCO1 | 100 to 102 |
| O=C1Nc2cccnc2N(C(=O)NCCN2CCCCC2CN2CCOCC2)c2ccccc21 (configuration not stated) | 167 |
| CCOc1sc(C)nc1S(=O)(=O)NC(=O)Nc1nc(OC)cc(OC)n1 | 140 to 143 |
| O=C(O)c1ccc(OC(F)(F)F)c(Cl)c1Cl | 123 to 126 |
| CCCCCCCCCCOc1ccc(C(O)C(O)c2ccc(C(=O)OC)cc2)nc1CCC(=O)OC (mixture of isomers) | 88 to 92 |
| COC(=O)c1ccc(C)c(-n2c(C)cc(OCc3ccccc3CNC(=O)Nc3cc(C(C)(C)C)nn3-c3ccc(O)cc3)c(Cl)c2=O)c1 | 199 to 200 |
| CN1CCc2c(-c3ccc(F)cc3)c(C(=O)N(C)Cc3cc(C(F)(F)F)cc(C(F)(F)F)c3)n(C)c(=O)c2C1 | 156 to 157 |
| CS(=O)(=O)c1ccc(-c2cc(CCCO)nn2C2CCCCC2)cc1 | 138 |
| Cc1ccc(C(=O)/C=C/c2c(-c3ccc(F)cc3)nc3sccn23)cc1C | 210 to 213 |
| CCOCc1nc2c(N)nc3cc(OCCCc4cccc(N)c4)ccc3c2n1CC(C)(C)O | 164 to 166 |
| CC(=O)OC[C@](O)(CO)c1ccc(F)cc1F | 52 to 53 |
| COc1cc(NC(C)CCCN)c2nccc(C)c2c1Oc1cccc(C(F)(F)F)c1 (configuration not stated) | 128 to 131 |
| O=C1N(CC2CCCN2)c2ccccc2C12COc1cc3c(cc12)CCO3 (configuration not stated) | 83 to 86 |
| CC(=O)N(Cc1ccccc1)CC(CCN1CCC(O)(c2ccccc2)CC1)c1ccc(Cl)c(Cl)c1 (configuration not stated) | 57 to 62 |
| O=C(Nc1cc(Cl)ccc1N1CCCCC1)c1cnn2cc(O)cnc12 | > 300 |
| CCCCc1nc(Cl)c(C=O)n1Cc1ccc2oc(-c3ccccc3C#N)c(OC)c2c1 | 118 to 120 |
| Cc1ccc(CON2C(C)(C)CC(O)CC2(C)C)cc1 | 92.5 to 93 |
| COC(=O)c1ccc(Br)c(S)c1 | 81 |
| COc1cc(C)cc(-c2n[nH]cc2-c2cc(NC[C@H](C)O)nc(Cl)n2)c1 | 256 |
| COC=C(C(=O)OC)c1ccccc1O | 125 to 126 |
| CC1OCCN1CCNc1ccc(NCCN2CCOC2C)c2c1C(=O)c1c(O)ccc(O)c1C2=O (configuration not stated) | 161 to 168 |
| Cc1nc(C)n(-c2cc(C)c3[nH]c(=O)ccc3c2)c1C#N | 334 to 337 |
| Cc1c(Cl)nc(-c2ccc([N+](=O)[O-])o2)nc1Cl | 174 to 175 |
| Cc1cccc(-c2csc(N3C(=O)c4ccccc4C3=O)c2C(=O)O)c1 | 195 |
| CCNC(=O)c1ccc(N2CCN(Cc3cc4c(c(OC)c3)OC(C)C(=O)N4)CC2)c(F)c1 (configuration not stated) | 228 to 229 |

| SMILES | melting point [°C] |
| --- | --- |
| COc1cccc([C@H]2O[C@H](CC(=O)Nc3ncc(CCC(=O)O)s3)C(=O)N(CC(C)(C)CO)c3ccc(Cl)cc32)c1OC | 203 to 205 |
| COC(=O)Cc1ccc(CNC(=O)C2Cc3ccccc3N2S(=O)(=O)c2ccc(-c3ccc(F)cc3OC)cc2)cc1 (configuration not stated) | 77 to 79 |
| CC(=O)OCC1OC(OC2C(COC(C)=O)OC(Oc3ccc([N+](=O)[O-])cc3)C(OC(C)=O)C2OC(C)=O)C(OC(C)=O)C(OC(C)=O)C1OC(C)=O (configuration not stated) | 165 to 170 |
| COc1ccc2ccc(=O)[nH]c2c1 | 190 |
| C/C=C/Cn1c(Oc2cc(C)cc(C)c2)c(CC)c(=O)[nH]c1=O | 149 to 150 |
| N#Cc1c(NC(=O)CO)cccc1NC(=O)CO | 188 to 189 |
| Nc1ccc2ncc(C(=O)NCc3ccc(Cl)cc3)c(O)c2c1 | > 225 |
| Cc1cccc(C)c1C(CNC(=O)OC(C)(C)C)COCc1c(F)cccc1F (configuration not stated) | 100 |
| Cc1cc(OC(=S)N(C)C)nc(C(Cl)(Cl)Cl)n1 | 81 to 83 |
| CCc1nc(C)cn1C(=O)c1c(Cl)cccc1Cl | 112 to 114 |
| CC(C)C(=O)NCCCn1c(CCO)nc2c(N)nc3ccccc3c21 | 196 to 198 |
| O=S(=O)(c1ccccc1)c1ccc2c(c1)O[C@H](CO)CO2 | 112 to 114 |
| NC(=O)c1cc(OCCNCC(O)COc2ccccc2-c2cc3ccccc3[nH]2)ccc1O (configuration not stated) | 93 to 95 |
| COc1ccccc1OP(=O)(CN(CC#N)N=O)Oc1ccccc1OC | 83 to 85 |
| O=C(Nc1cnc2[nH]ccc2c1)c1cc2cc(F)ccc2n1Cc1cccc(F)c1 | 266 to 267 |
| CCN(C(=O)c1ccccc1C(=O)c1ccc(Cl)cc1)[C@@H]1CCCC[C@@H]1NS(=O)(=O)c1ccc(C)cc1 (relative stereo) | 178 to 180 |
| COc1ccc(F)cc1C(C)(C)CC(O)(Cc1cccc(-c2cccnc2)c1)C(F)(F)F (configuration not stated) | 148 to 150 |
| COc1ccc2c(c1)N(c1ccc(F)cc1)C(=O)C2(C)N (configuration not stated) | 140 to 141 |
| Cc1c(CC(=O)O)c2cc(OCc3ccc4ccccc4n3)ccc2n1Cc1ccc(C(=O)O)cc1 | 232 to 234 |
| O=C(O)c1csc(Nc2ccc(Cl)c(C(F)(F)F)c2)n1 | 254 to 256 |
| Cn1cc(-c2cccc(C(F)(F)F)c2)c(=O)c(-c2ccccc2Cl)c1 | 191 to 193 |
| CCCCCCC(c1ccc2[nH]c(-c3ccc(F)cc3)nc2c1)n1ccnc1 (configuration not stated) | 122 |
| Nn1cccc1C(=O)C(F)(F)F | 33 to 35 |
| Cc1ccc(Cc2cnc(NCCCNc3ccc(C#N)cn3)[nH]c2=O)cn1 | 175 to 177 |
| [N-]=[N+]=Nc1nc(N=[N+]=[N-])c2ncn(COC(CO)CO)c2n1 | 174 to 180 |

| SMILES | melting point [°C] |
| --- | --- |
| CC(=O)N1CCC(CNCc2ccc(C=CC(=O)Nc3ccc(-c4ccc(Cl)cc4)cc3)cc2)CC1 | 225 to 226 |
| Oc1cc(CBr)c2oc(-c3ccc(O)c(F)c3)cc2c1 | 269 to 271 |
| COc1ccc2cccc(/C(CNC(C)=O)=N/O)c2c1 | 136 to 138 |
| COC(=O)COc1cc(Cl)c(SCc2cc(-c3ccc(C(F)(F)F)cc3)on2)cc1C | 120 to 121 |
| O=C(O)/C=C\C=C(c1ccccc1F)c1ccccc1F | 147 to 148 |
| O=C1NN=C(c2ccc(NC(=O)C3(Cl)CC3)cc2)C2CC12 (configuration not stated) | 221 to 222 |
| COc1ccc2c(c1)CCCC2(N)C(=O)O (configuration not stated) | > 250 |
| CC(=O)NC1(c2ccc(=O)n(C)c2)CCCCC1 | 194 to 195 |
| O=C(O)c1nc(-c2ccc(Cl)cc2Cl)[nH]c1C(=O)O | 238 |
| O=c1oc(=O)n(Cc2ccc(F)cc2)c2ccccc12 | 142 to 145 |
| COc1ccc(C2CNC(=O)O2)cc1OC1CCCC1 (configuration not stated) | 111 to 112 |
| CCCCCC(=O)Nc1ccc2ccn(CCCO)c2c1 | 87 to 88 |
| CCOC(=O)c1cn(C2COC2)c2cc(F)c(F)cc2c1=O | 177 to 178 |
| NC(=O)C1(N2C(=O)c3cccc(Br)c3C2=O)CCCCC1 | 199 to 200 |
| COc1cccc2c1nc(C1CC1)n2Cc1c(F)cccc1F | 136 to 139 |
| CCc1nc2c(c(C)c(C)n3nnnc23)n1CCOCCN | 181 to 183 |
| COc1c(OCc2ccccc2)c(OC)c2c(=O)cc(-c3ccc(OCc4ccccc4)c(OCc4ccccc4)c3)oc2c1OC | 155 to 156 |
| O=[N+]([O-])c1ccc2c(c1)N(c1nnn[nH]1)CC2 | 262 to 270 |
| O=S(=O)(/C=C/c1ccc(Cl)cc1)Nc1ccc(F)cc1 | 105 to 107 |
| CCCc1c(OCCCCCOc2ccc3nc(CCC(=O)O)ccc3c2CCC(=O)O)ccc2c1OCCC2=O | 123 to 128 |
| CC1(C)Oc2ccc(C#N)cc2C(Oc2ccccn2)C1O (configuration not stated) | 102 to 103 |
| C=CCn1c(=O)c(C(=O)OCC)c(O)c2ccc(C)nc21 | 110 to 112 |
